Patent US20260098061A1, “EPHA2-BINDING PENDING PEPTIDE AND COMPOSITION COMPRISING SAME” (PeptiDream Inc., priority 2022, published 2026)
Numbered stars: 1 amine (or outer) side, 2 acyl side, 3 side chain; on linkers, the order of the positions; unused ones are H or OH. Bridge positions count the residues as written; N and C are the ends. Square brackets hold non-standard residues; d marks the D form. Side chains are listed from the residue outwards. Peptide text beside a SMILES is read from it. * marks the point of attachment. Piperazinyl(4-CH2COOH) = O=C(O)CN1CCN(*)CC1; Trp(1-Me) = Cn1cc(C[C@H](N)C(=O)O)c2ccccc21; NMe3Pal = CN[C@@H](Cc1cccnc1)C(=O)O; NMeF = CN[C@@H](Cc1ccccc1)C(=O)O; NMeE = CN[C@@H](CCC(=O)O)C(=O)O; Aad = N[C@@H](CCCC(=O)O)C(=O)O; CO = O=C([*:1])[*:2]; βAla = NCCC(=O)O

Target: T1, Recombinant Human EphA2 Fc Protein (Homo sapiens, UniProt P29317)
T1 construct: purchased Elabscience
Test: SPR interaction analysis (Biacore T200), kinetics of peptides against EphA2
Format: binding
Settings: Recombinant Human EphA2 Fc Protein captured by Human Antibody Capture kit; single-cycle kinetics; 25° C.; HBS-P+ buffer with 1% DMSO
Experimental: Example 14 Interaction Analysis by SPR was Performed Using Biacore (Cytiva)
SPR assay was performed using Biacore T200 (Cytiva).
The HBS-P+ buffer (10 mM HEPES (pH7.4), 150 mM NaCl, 0.05% (v/V) Surfactant P20) containing 1% DMSO was used as running buffer. Recombinant Human EphA2 Fc Protein (Fc tag, Elabscience) was captured by Human Antibody Capture kit (Cytiva). Peptide samples in DMSO were diluted with running buffer, and prepared five serial dilutions. Using these serial dilutions, kinetics of peptides against EphA2 was measured at a flow rate of 30 mL/min at 25° C. The method adopted for sample measurement was a single-cycle kinetics method. The analysis was conducted using the evaluation software 3.0 provided with Biacore T200. Kinetics fitting was done on the difference data obtained by subtracting the baseline data from sample measurement data. KD values were calculated based on the association rate constant (ka) and dissociation rate constant (kd).

Row | Kd | Structure (SMILES)
1 | < 1 nM | CC(=O)NCCCC[C@@H](NC(=O)CCNC(=O)[C@@H]1CSCC(=O)N[C@H](C)C(=O)N(C)[C@@H](Cc2cccnc2)C(=O)N[C@@H](CC(N)=O)C(=O)N[C@@H](CC(C)C)C(=O)N[C@@H](CCCC(N)=O)C(=O)N(C)[C@@H](Cc2ccccc2)C(=O)N[C@@H](Cc2cn(C)c3ccccc23)C(=O)N[C@@H](CCCCNC(=O)N2CCN(CC(=O)O)CC2)C(=O)N[C@@H](Cc2cn(C)c3ccccc23)C(=O)N[C@@H]([C@@H](C)O)C(=O)N[C@@H](CCCC(N)=O)C(=O)N1)C(N)=O [PDC_EphA2-00008093, da-Me3Py-N-L-Hgn-MeF-W1Me-KCOpipzaa-W1Me-T-Hgn-C-bA-dkAc-NH2] ({CH2CO}-[dA][NMe3Pal]NL[Aad](NH2)[NMeF][Trp(1-Me)]K([CO-Piperazinyl(4-CH2COOH)])[Trp(1-Me)]T[Aad](NH2)C[βAla][dK](Ac)-NH2; thioether N-12)
2 | < 1 nM | CC(=O)NCCCC[C@@H](NC(=O)CCNC(=O)[C@@H]1CSCC(=O)N[C@H](C)C(=O)N(C)[C@@H](Cc2cccnc2)C(=O)N[C@@H](CC(N)=O)C(=O)N[C@@H](CC(C)C)C(=O)N[C@@H](CCCC(=O)O)C(=O)N(C)[C@@H](CCC(=O)O)C(=O)N[C@@H](Cc2cn(C)c3ccccc23)C(=O)N[C@@H](CCCCNC(=O)N2CCN(CC(=O)O)CC2)C(=O)N[C@@H](Cc2cn(C)c3ccccc23)C(=O)N[C@@H]([C@@H](C)O)C(=O)N[C@@H](CCCC(N)=O)C(=O)N1)C(N)=O [PDC_EphA2-00008094, da-Me3Py-N-L-Hgl-MeE-W1Me-KCOpipzaa-W1Me-T-Hgn-C-bA-dkAc-NH2] ({CH2CO}-[dA][NMe3Pal]NL[Aad][NMeE][Trp(1-Me)]K([CO-Piperazinyl(4-CH2COOH)])[Trp(1-Me)]T[Aad](NH2)C[βAla][dK](Ac)-NH2; thioether N-12)
3 | < 1 nM | CC(=O)NCCCC[C@@H](NC(=O)CCNC(=O)[C@@H]1CSCC(=O)N[C@H](C)C(=O)N(C)[C@@H](Cc2cccnc2)C(=O)N[C@@H](CC(N)=O)C(=O)N[C@@H](CC(C)C)C(=O)N[C@@H](CCCCNC(=O)N2CCN(CC(=O)O)CC2)C(=O)N(C)[C@@H](CCC(=O)O)C(=O)N[C@@H](Cc2cn(C)c3ccccc23)C(=O)N[C@@H](CCCCNC(=O)N2CCN(CC(=O)O)CC2)C(=O)N[C@@H](Cc2cn(C)c3ccccc23)C(=O)N[C@@H]([C@@H](C)O)C(=O)N[C@@H](CCCC(N)=O)C(=O)N1)C(N)=O [PDC_EphA2-00008095, da-Me3Py-N-L-KCOpipzaa-MeE-W1Me-KCOpipzaa-W1Me-T-Hgn-C-bA-dkAc-NH2] ({CH2CO}-[dA][NMe3Pal]NLK([CO-Piperazinyl(4-CH2COOH)])[NMeE][Trp(1-Me)]K([CO-Piperazinyl(4-CH2COOH)])[Trp(1-Me)]T[Aad](NH2)C[βAla][dK](Ac)-NH2; thioether N-12)
4 | 1 to 10 nM | CC(=O)NCCCC[C@@H](NC(=O)CCNC(=O)[C@@H]1CSCC(=O)N[C@@H](C)C(=O)N(C)[C@@H](Cc2cccnc2)C(=O)N[C@@H](CC(N)=O)C(=O)N[C@@H](CC(C)C)C(=O)N[C@@H](CCCC(=O)O)C(=O)N(C)[C@@H](Cc2ccccc2)C(=O)N[C@@H](Cc2cn(C)c3ccccc23)C(=O)N[C@@H](CCCCNC(=O)N2CCN(CC(=O)O)CC2)C(=O)N[C@@H](Cc2cn(C)c3ccccc23)C(=O)N[C@@H]([C@@H](C)O)C(=O)N[C@@H](CCC(=O)O)C(=O)N1)C(N)=O [PDC_EphA2-00008097, A-Me3Py-N-L-Hgl-MeF-W1Me-KCOpipzaa-W1Me-T-E-C-bA-dkAc-NH2] ({CH2CO}-A[NMe3Pal]NL[Aad][NMeF][Trp(1-Me)]K([CO-Piperazinyl(4-CH2COOH)])[Trp(1-Me)]TEC[βAla][dK](Ac)-NH2; thioether N-12)
